The source of these data is patent publication US11648254B2 (Kumquat Biosciences Inc., priority 2021, dated 2023).

Assay [1] deals with SOS1 (Homo sapiens (Human), UniProt Q07889). Kind of assay: Ras-SOS interaction assay (HTRF). It counts as biochemical. Background: In TR-FRET formats the signal depends on donor and acceptor labels being close together.
For assay [2], the system named is MIA PaCa-2 cells (K-Ras G12C). Kind of assay: Ras-SOS cellular growth inhibition assay (CellTiter-Glo, 3D). The class given is cell-based. The conditions noted are these: Homo sapiens. The procedure, abridged: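 Growth read by CellTiter-Glo luminescence about 5 days after dosing with 3-fold dilutions (9 points), added one day post-seeding. Cells: MIA PaCa-2, 3D culture on ultra-low-attachment surface, medium DMEM/Ham's F12 plus 10% FCS and 2.5% horse serum; IC50 by four-parameter fit.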
For orientation: In ATP-based viability assays light output follows the ATP content of the culture.

Assay [3] deals with NCI-H1975 cells (EGFR T790M L858R). Kind of assay: EGFR-SOS cellular inhibition assay (CellTiter-Glo, 3D). The class given is cell-based. To be noted: Homo sapiens.
[4] abbreviates: K-RasG13D utilized, read-out: IC50 inhibition of SOS.
[5] abbreviates: K-RasG13D, read-out: IC50 value against SOS1.
Where [6] appears, read: MIA PaCa-2, 120 h, MIA PaCa-2, 3D proliferation, about 5 days, read-out: Bio-Cell-Prolif-3D (MiaPaca2 IC50).
Setting [7] is: MIA PaCa-2, MIA PaCa-2, read-out: IC50 in inhibiting MIA PaCa-2 cell growth.
[8] abbreviates: 120 h, NCI-H1975, 3D proliferation, about 5 days, read-out: Bio-Cell-Prolif-3D (H1975 IC50).
The mark [9] stands for this setting: NCI-H1975, EGFR T790M L858R, read-out: IC50 in inhibiting growth of NCI-H1975 cell line.

Molecules are shown by their SMILES. pIC50: −log10 of the molar value. Read-outs that look alike come from different tables or passages of the source. A value given as a limit tells only on which side of the number the result lay.

Chain of SOS1 (Q07889 564-1049): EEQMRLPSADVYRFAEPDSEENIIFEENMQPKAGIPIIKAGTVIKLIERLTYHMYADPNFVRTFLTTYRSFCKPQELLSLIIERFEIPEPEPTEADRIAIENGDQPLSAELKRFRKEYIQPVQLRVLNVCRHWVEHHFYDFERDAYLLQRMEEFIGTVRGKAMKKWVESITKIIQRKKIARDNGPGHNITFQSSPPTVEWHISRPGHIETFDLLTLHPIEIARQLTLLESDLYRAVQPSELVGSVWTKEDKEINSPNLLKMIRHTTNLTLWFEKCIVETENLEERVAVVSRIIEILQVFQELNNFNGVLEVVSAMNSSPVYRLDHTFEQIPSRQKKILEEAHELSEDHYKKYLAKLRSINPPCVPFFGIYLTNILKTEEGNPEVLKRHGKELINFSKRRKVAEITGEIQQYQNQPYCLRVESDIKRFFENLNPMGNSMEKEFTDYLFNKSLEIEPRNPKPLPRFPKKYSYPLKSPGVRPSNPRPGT

On to `C[C@H](O)C(F)(F)c1cccc([C@@H](C)Nc2ncnc3nc(Cl)c(C4(C#N)CC4)cc23)c1` [Compound 265, 1-(7-chloro-4-(((R)-1-(3-((S)-1,1-difluoro-2-hydroxypropyl)phenyl)ethyl)amino)pyrido[2,3-d]pyrimidin-6-yl) cyclopropane-1-carbonitrile], for which the pIC50 (as a rule, the negative decadic logarithm of the IC50, by convention in mol/L) in assay [1] (setting [4]) was above 7.00; in assay [1] (setting [5]), above 7.30; in assay [2] (setting [6]) it was at least 6.00; in assay [2] (setting [7]), above 6.30; in assay [3] (setting [8]), at least 6.00; in assay [3] (setting [9]), above 6.30.

On to `CC(C)N1CCC(c2cc3c(N[C@H](C)c4cccc(C(F)(F)C5CCN(C(C)C)CC5)c4)ncnc3nc2Cl)CC1` [Compound 268, (R)-7-chloro-N-(1-(3-(difluoro(1-isopropylpiperidin-4-yl)methyl)phenyl)ethyl)-6-(1-isopropylpiperidin-4-yl)pyrido[2,3-d] pyrimidin-4-amine], for which the pIC50 was above 7.00 in assay [1] (setting [4]); above 7.30 in assay [1] (setting [5]); at least 6.00 in assay [2] (setting [6]); above 6.30 in assay [2] (setting [7]); at least 6.00 in assay [3] (setting [8]); above 6.30 in assay [3] (setting [9]).

In the case of `Cc1nc(N[C@H](C)c2cccc(C(F)(F)C3CCN(C(C)C)CC3)c2)c2cc(C3CCN(C(C)C)CC3)c(Cl)nc2n1` [Compound 269, (R)-7-chloro-N-(1-(3-(difluoro(1-isopropylpiperidin-4-yl)methyl)phenyl)ethyl)-6-(1-isopropylpiperidin-4-yl)-2-methylpyrido[2,3-d] pyrimidin-4-amine], the negative-log IC50 (pIC50) in assay [1] (setting [4]) was above 7.00; in assay [1] (setting [5]), above 7.30; in assay [2] (setting [6]), at least 6.00; in assay [2] (setting [7]), above 6.30; in assay [3] (setting [8]) it was at least 6.00; in assay [3] (setting [9]), above 6.30.

With `COc1nc2nc(OC[C@H]3CCCN3C)nc(N[C@H](C)c3cccc(C(F)F)c3F)c2cc1C1(C#N)CC1` [Compound 270, 1-(4-(((R)-1-(3-(difluoromethyl)-2-fluorophenyl)ethyl)amino)-7-methoxy-2-(((R)-1-methylpyrrolidin-2-yl)methoxy)pyrido [2,3-d]pyrimidin-6-yl)cyclopropane-1-carbonitrile], the negative-log IC50 (pIC50) is above 7.00 in assay [1] (setting [4]); above 7.30 in assay [1] (setting [5]); at least 6.00 in assay [2] (setting [6]); above 6.30 in assay [2] (setting [7]); at least 6.00 in assay [3] (setting [8]); above 6.30 in assay [3] (setting [9]).

As to `COc1nc2nc(C)nc(N[C@H](C)c3cccc(C(F)(F)C4CN(C)C4)c3)c2cc1N1CCS(=O)(=O)CC1` [Compound 272, (R)-4-(4-((1-(3-(difluoro(1-methylazetidin-3-yl)methyl)phenyl)ethyl)amino)-7-methoxy-2-methylpyrido[2,3-d]pyrimidin-6-yl)thiomorpholine 1,1-dioxide], the pIC50 in assay [1] (setting [5]) is above 7.30; in assay [2] (setting [6]), at least 6.00; in assay [3] (setting [8]), at least 6.00; in assay [3] (setting [9]), above 6.30.

`C#Cc1nc(N[C@H](C)c2cccc(C(F)F)c2F)c2cc(C3(C#N)CC3)c(OC)nc2n1` [Compound 276, (R)-1-(4-((1-(3-(difluoromethyl)-2-fluorophenyl)ethyl)amino)-2-ethynyl-7-methoxypyrido[2,3-d]pyrimidin-6-yl)cyclopropane-1-carbonitrile]: the values for the negative-log IC50 (pIC50) in assay [1] (setting [4]), in assay [2] (setting [6]) and in assay [3] (setting [8]) were above 7.00, 5.00 to 6.00 and 5.00 to 6.00, respectively.

On to `COc1nc2nc(C)nc(N[C@H](C)c3cccc(C(F)(F)CN4CCC4)c3F)c2cc1C1(C#N)CC1` [Compound 277, (R)-1-(4-((1-(3-(2-(azetidin-1-yl)-1,1-difluoroethyl)-2-fluorophenyl)ethyl)amino)-7-methoxy-2-methylpyrido [2,3-d]pyrimidin-6-yl)cyclopropane-1-carbonitrile], for which the pIC50 in assay [1] (setting [4]) is above 7.00; in assay [1] (setting [5]) it was above 7.30; in assay [2] (setting [6]), at least 6.00; in assay [3] (setting [8]), at least 6.00; in assay [3] (setting [9]), above 6.30.

For the molecule `COc1nc2nc(OCC3COC3)nc(N[C@H](C)c3cccc(C(F)F)c3F)c2cc1C1(C#N)CC1` [Compound 278, (R)-1-(4-((1-(3-(difluoromethyl)-2-fluorophenyl)ethyl)amino)-7-methoxy-2-(oxetan-3-ylmethoxy)pyrido [2,3-d]pyrimidin-6-yl)cyclopropane-1-carbonitrile], the pIC50 is above 7.00 in assay [1] (setting [4]), below 5.00 in assay [2] (setting [6]) and 5.00 to 6.00 in assay [3] (setting [8]).

Consider `COc1nc2ncnc(N[C@H](C)c3cccc(C(F)(F)C4CN(C(C)C)C4)c3F)c2cc1C1CCS(=O)(=O)CC1` [Compound 283, (R)-4-(4-((1-(3-(difluoro(1-isopropylazetidin-3-yl)methyl)-2-fluorophenyl)ethyl)amino)-7-methoxypyrido[2,3-d]pyrimidin-6-yl)tetrahydro-2H-thiopyran-1,1-dioxide], for which the pIC50 in assay [1] (setting [4]) was above 7.00; in assay [2] (setting [6]), at least 6.00; in assay [2] (setting [7]), above 6.30; in assay [3] (setting [8]), at least 6.00; in assay [3] (setting [9]) it was above 6.30.

With `COc1nc2nc(C)nc(N[C@H](C)c3cccc(C(F)(F)F)c3C)c2cc1C1(C#N)CCN(C(C)C)CC1` [Compound 285, (R)-1-isopropyl-4-(7-methoxy-2-methyl-4-((1-(2-methyl-3-(trifluoromethyl)phenyl)ethyl)amino)pyrido[2,3-d]pyrimidin-6-yl)piperidine-4-carbonitrile], the negative-log IC50 (pIC50) was above 7.00 in assay [1] (setting [4]), above 7.30 in assay [1] (setting [5]), 5.00 to 6.00 in assay [2] (setting [6]) and at least 6.00 in assay [3] (setting [8]).

As for `CCN1CCC(c2cc3c(N[C@H](C)c4cccc(C(F)(F)F)c4F)nc(C)nc3nc2OC)CC1` [Compound 288, (R)-6-(1-ethylpiperidin-4-yl)-N-(1-(2-fluoro-3-(trifluoromethyl)phenyl)ethyl)-7-methoxy-2-methylpyrido [2,3-d]pyrimidin-4-amine], the pIC50 in assay [1] (setting [4]) is above 7.00; in assay [1] (setting [5]), above 7.30; in assay [2] (setting [6]), at least 6.00; in assay [2] (setting [7]), above 6.30; in assay [3] (setting [8]), at least 6.00; in assay [3] (setting [9]), above 6.30.

In the case of `COc1nc2ncnc(N[C@H](C)c3cccc(C(F)(F)C4CCC(N(C)C)CC4)c3F)c2cc1C1CCS(=O)(=O)CC1` (stereo partly drawn) [Compound 289, (R)-4-(4-((1-(3-((4-(dimethylamino)cyclohexyl)difluoromethyl)-2-fluorophenyl)ethyl)amino)-7-methoxypyrido[2,3-d]pyrimidin-6-yl)tetrahydro-2H-thiopyran 1,1-dioxide], the pIC50 is above 7.00 in assay [1] (setting [4]); above 7.30 in assay [1] (setting [5]); at least 6.00 in assay [2] (setting [6]); above 6.30 in assay [2] (setting [7]); at least 6.00 in assay [3] (setting [8]); above 6.30 in assay [3] (setting [9]).

As to `CC(C)N1CCC(C(F)(F)c2cccc([C@@H](C)Nc3ncnc4nc(Cl)c(N5CCN(C(C)C)CC5)cc34)c2)CC1` [Compound 291, (R)-7-chloro-N-(1-(3-(difluoro(1-isopropylpiperidin-4-yl)methyl)phenyl)ethyl)-6-(4-isopropylpiperazin-1-yl)pyrido[2,3-d] pyrimidin-4-amine], the pIC50 in assay [1] (setting [4]) was above 7.00; in assay [1] (setting [5]), above 7.30; in assay [2] (setting [6]), at least 6.00; in assay [2] (setting [7]), above 6.30; in assay [3] (setting [8]) it was at least 6.00; in assay [3] (setting [9]), above 6.30.

`COc1nc2ncnc(N[C@H](C)c3cccc(C(C)(F)F)c3F)c2cc1N1CCS(=O)(=O)CC1` [Compound 292, (R)-4-(4-((1-(3-(1,1-difluoroethyl)-2-fluorophenyl)ethyl)amino)-7-methoxypyrido[2,3-d]pyrimidin-6-yl)thiomorpholine 1,1-dioxide]: the negative-log IC50 (pIC50) was above 7.00 in assay [1] (setting [4]); above 7.30 in assay [1] (setting [5]); at least 6.00 in assay [2] (setting [6]); above 6.30 in assay [2] (setting [7]); at least 6.00 in assay [3] (setting [8]); above 6.30 in assay [3] (setting [9]).

`Cc1nc(N[C@H](C)c2cccc(C(F)(F)C3CCN(C(C)C)CC3)c2)c2cc(N3CCN(C(C)C)CC3)c(Cl)nc2n1` [Compound 293, (R)-7-chloro-N-(1-(3-(difluoro(1-isopropylpiperidin-4-yl)methyl)phenyl)ethyl)-6-(4-isopropylpiperazin-1-yl)-2-methylpyrido[2,3-d] pyrimidin-4-amine]: the pIC50 is above 7.00 in assay [1] (setting [4]); above 7.30 in assay [1] (setting [5]); at least 6.00 in assay [2] (setting [6]); above 6.30 in assay [2] (setting [7]); at least 6.00 in assay [3] (setting [8]); above 6.30 in assay [3] (setting [9]).

Regarding `Cc1nc(N[C@H](C)c2cccc(C(F)F)c2F)c2cc(C3(C#N)CC3)c(N3CCN(C)CC3)nc2n1` [Compound 295, (R)-1-(4-((1-(3-(difluoromethyl)-2-fluorophenyl)ethyl)amino)-2-methyl-7-(4-methylpiperazin-1-yl)pyrido[2,3-d]pyrimidin-6-yl)cyclopropanecarbonitrile], the negative-log IC50 (pIC50) in assay [1] (setting [4]) is above 7.00; in assay [1] (setting [5]), above 7.30; in assay [2] (setting [6]), at least 6.00; in assay [2] (setting [7]) it was above 6.30; in assay [3] (setting [8]), at least 6.00; in assay [3] (setting [9]), above 6.30.

For `Cc1nc(N[C@H](C)c2cccc(C(F)F)c2F)c2cc(C3(C#N)CC3)c(OC[C@@H]3CC(F)(F)CN3C)nc2n1` [Compound 296, 1-(7-(((S)-4,4-difluoro-1-methylpyrrolidin-2-yl)methoxy)-4-(((R)-1-(3-(difluoromethyl)-2-fluorophenyl)ethyl)amino)-2-methylpyrido[2,3-d]pyrimidin-6-yl)cyclopropane-1-carbonitrile], the pIC50 in assay [1] (setting [4]) is above 7.00; in assay [2] (setting [6]) it was 5.00 to 6.00; in assay [3] (setting [8]) it was at least 6.00.
